Columns and labels:
Type in all cases: in vivo
[1] = test system: Amaranthus retroflexus; assay: Post-emergence herbicidal action, AMARE; set-up: key: % herbicidal action vs untreated; 100 = plants died, 0 = like control; conditions: for Herbicidal action against AMARE: post-emergence
Method: (§1) [table] 2. Post-Emergence Herbicidal Action Against Harmful Plants Seeds of monocotyledonous and dicotyledonous weed and crop plants are laid out in sandy loam soil in wood-fiber pots, covered with soil and cultivated in a greenhouse under good growth conditions. 2 to 3 weeks after sowing, the test plants are treated at the one-leaf stage. The compounds of the invention, formulated in the form of wettable powders (WP) or as emulsion concentrates (EC), are then sprayed onto the green parts of the plants in the form of an aqueous suspension or emulsion at a water application rate equating to 600 to 800 l/ha, with addition of 0.2% wetting agent. After the test plants have been left to stand in the greenhouse under optimal growth conditions for about 3 weeks, the action of the preparations is assessed visually in comparison to untreated controls (herbicidal action in percent (%): 100% activity=the plants have died, 0% activity=like control plants). […] The tables below illustrate, in an exemplary manner, the post-emergence herbicidal action of the compounds according to the invention, the herbicidal activity being stated in percent. In the experiments that follow, herbicidal action of numerous inventive compounds and the known compounds that are structurally closest from D1 (WO 2012/028579 A1) and D2 (WO 2018/202535 A1) were compared under the above-specified conditions by the pre-emergence and post-emergence method. The example numbers given in the tables relate to the compounds disclosed in the respective documents. In addition to the compounds disclosed in D1 and D2, the following compounds V-1 to V-14 that are encompassed by D1 or D2 but are not compounds specified therein were used in the comparative experiments: • V-1: 2-(methylsulfanyl)-3-(methylsulfinyl)-N-(1-methyl-1H-tetrazol-5-yl)-4-(trifluoromethyl)benzamide • V-2: 2-(methylsulfanyl)-3-(methylsulfonyl)-N-(1-methyl-1H-tetrazol-5-yl)-4-(trifluoromethyl)benzamide • V-3: 2,3-bis(ethylsulfanyl)-N-(1-methyl-1H-tetrazol-5-yl)-4-(trifluoromethyl)benzamide • V-4: 2-chloro-3-(ethylsulfanyl)-N-(1-methyl-1H-tetrazol-5-yl)-4-(trifluoromethyl)benzamide • V-5: 2-chloro-4-iodo-3-(methylsulfanyl)-N-(1-methyl-1H-tetrazol-5-yl)benzamide • V-6: 2-chloro-4-iodo-3-(methylsulfinyl)-N-(1-methyl-1H-tetrazol-5-yl)benzamide • V-7: 2-chloro-4-iodo-3-(methylsulfonyl)-N-(1-methyl-1H-tetrazol-5-yl)benzamide • V-8: 2-bromo-3-(methylsulfanyl)-N-(1-methyl-1H-tetrazol-5-yl)-4-(trifluoromethyl)benzamide • V-9: 2-bromo-3-(methylsulfinyl)-N-(1-methyl-1H-tetrazol-5-yl)-4-(trifluoromethyl)benzamide • V-10: 2-bromo-3-(methylsulfonyl)-N-(1-methyl-1H-tetrazol-5-yl)-4-(trifluoromethyl)benzamide • V-11: 2-bromo-3-(ethylsulfanyl)-N-(1-methyl-1H-tetrazol-5-yl)-4-(trifluoromethyl)benzamide • V-12: 2-bromo-3-(ethylsulfinyl)-N-(1-methyl-1H-tetrazol-5-yl)-4-(trifluoromethyl)benzamide • V-13: 2-bromo-3-(ethylsulfonyl)-N-(1-methyl-1-1H-tetrazol-5-yl)-4-(trifluoromethyl)benzamide • V-14: 2-cyclopropyl-3-(ethylsulfanyl)-N-(1-methyl-1H-tetrazol-5-yl)-4-(trifluoromethyl)benzamide Herbicidal Pre-Emergence Action: […]

[2] = test system: Veronica persica; assay: Pre-emergence herbicidal action, VERPE; set-up: key to Herbicidal action against VERPE: % activity: 100 = plants have died, 0 = like control plants; conditions: for herbicidal action VERPE: dosage 320 g/ha
Description: (§2) 1. Pre-Emergence Herbicidal Action Against Harmful Plants Seeds of monocotyledonous and dicotyledonous weed plants and crop plants are laid out in sandy loam soil in wood-fiber pots and covered with soil. The compounds of the invention, formulated in the form of wettable powders (WP) or as emulsion concentrates (EC), are then applied to the surface of the covering soil in the form of an aqueous suspension or emulsion at a water application rate equating to 600 to 800 l/ha, with addition of 0.2% wetting agent. After the treatment, the pots are placed in a greenhouse and kept under good growth conditions for the trial plants. The damage to the test plants is scored visually after a test period of 3 weeks by comparison with untreated controls (herbicidal activity in percent (%): 100% activity=the plants have died, 0% activity=like control plants). […] The tables below illustrate, in an exemplary manner, the […] herbicidal action of the compounds according to the invention, the herbicidal activity being stated in percent. [table] In the experiments that follow, herbicidal action of numerous inventive compounds and the known compounds that are structurally closest from D1 (WO 2012/028579 A1) and D2 (WO 2018/202535 A1) were compared under the above-specified conditions by the pre-emergence and post-emergence method. The example numbers given in the tables relate to the compounds disclosed in the respective documents. In addition to the compounds disclosed in D1 and D2, the following compounds V-1 to V-14 that are encompassed by D1 or D2 but are not compounds specified therein were used in the comparative experiments: • V-1: 2-(methylsulfanyl)-3-(methylsulfinyl)-N-(1-methyl-1H-tetrazol-5-yl)-4-(trifluoromethyl)benzamide • V-2: 2-(methylsulfanyl)-3-(methylsulfonyl)-N-(1-methyl-1H-tetrazol-5-yl)-4-(trifluoromethyl)benzamide • V-3: 2,3-bis(ethylsulfanyl)-N-(1-methyl-1H-tetrazol-5-yl)-4-(trifluoromethyl)benzamide • V-4: 2-chloro-3-(ethylsulfanyl)-N-(1-methyl-1H-tetrazol-5-yl)-4-(trifluoromethyl)benzamide • V-5: 2-chloro-4-iodo-3-(methylsulfanyl)-N-(1-methyl-1H-tetrazol-5-yl)benzamide • V-6: 2-chloro-4-iodo-3-(methylsulfinyl)-N-(1-methyl-1H-tetrazol-5-yl)benzamide • V-7: 2-chloro-4-iodo-3-(methylsulfonyl)-N-(1-methyl-1H-tetrazol-5-yl)benzamide • V-8: 2-bromo-3-(methylsulfanyl)-N-(1-methyl-1H-tetrazol-5-yl)-4-(trifluoromethyl)benzamide • V-9: 2-bromo-3-(methylsulfinyl)-N-(1-methyl-1H-tetrazol-5-yl)-4-(trifluoromethyl)benzamide • V-10: 2-bromo-3-(methylsulfonyl)-N-(1-methyl-1H-tetrazol-5-yl)-4-(trifluoromethyl)benzamide • V-11: 2-bromo-3-(ethylsulfanyl)-N-(1-methyl-1H-tetrazol-5-yl)-4-(trifluoromethyl)benzamide • V-12: 2-bromo-3-(ethylsulfinyl)-N-(1-methyl-1H-tetrazol-5-yl)-4-(trifluoromethyl)benzamide • V-13: 2-bromo-3-(ethylsulfonyl)-N-(1-methyl-1-1H-tetrazol-5-yl)-4-(trifluoromethyl)benzamide • V-14: 2-cyclopropyl-3-(ethylsulfanyl)-N-(1-methyl-1H-tetrazol-5-yl)-4-(trifluoromethyl)benzamide Herbicidal Pre-Emergence Action: […]

[3] = test system: Stellaria media; assay: Post-emergence herbicidal action, STEME; set-up: key: % herbicidal action vs untreated; 100 = plants died, 0 = like control; conditions: for Herbicidal action against STEME: post-emergence
Method: as §1

[4] = test system: Abutilon theophrasti; assay: Post-emergence herbicidal action, ABUTH; set-up: key: % herbicidal action vs untreated; 100 = plants died, 0 = like control; conditions: for Herbicidal action against ABUTH: post-emergence
Method: as §1

[5] = test system: Viola tricolor; assay: Pre-emergence herbicidal action, VIOTR; set-up: key to Herbicidal action against VIOTR: % activity: 100 = plants have died, 0 = like control plants; conditions: for herbicidal action VIOTR: dosage 320 g/ha
Description: as §2

[6] = test system: Stellaria media; assay: Pre-emergence herbicidal action, STEME; set-up: key to Herbicidal action against STEME: % activity: 100 = plants have died, 0 = like control plants; conditions: for herbicidal action STEME: dosage 320 g/ha
Description: as §2

[7] = test system: Viola tricolor; assay: Post-emergence herbicidal action, VIOTR; set-up: key: % herbicidal action vs untreated; 100 = plants died, 0 = like control; conditions: for Herbicidal action against VIOTR: post-emergence
Method: as §1

[8] = test system: Amaranthus retroflexus; assay: Pre-emergence herbicidal action, AMARE; set-up: key to Herbicidal action against AMARE: % activity: 100 = plants have died, 0 = like control plants; conditions: for herbicidal action AMARE: dosage 320 g/ha
Description: as §2

[9] = test system: Echinochloa crus-galli; assay: Pre-emergence herbicidal action, ECHCG; conditions: for herbicidal action ECHCG: dosage 320 g/ha
Description: as §2

[10] = test system: Setaria viridis; assay: Post-emergence herbicidal action, SETVI; set-up: key: % herbicidal action vs untreated; 100 = plants died, 0 = like control; conditions: post-emergence
Method: as §1

[11] = test system: Veronica persica; assay: Post-emergence herbicidal action, VERPE; set-up: key: % herbicidal action vs untreated; 100 = plants died, 0 = like control; conditions: for Herbicidal action against VERPE: post-emergence
Method: as §1

[12] = test system: Echinochloa crus-galli; assay: Post-emergence herbicidal action, ECHCG; set-up: key: % herbicidal action vs untreated; 100 = plants died, 0 = like control; conditions: for Herbicidal action against ECHCG: post-emergence
Method: as §1

[13] = test system: Matricaria inodora; assay: Pre-emergence herbicidal action, MATIN; set-up: key to Herbicidal action against MATIN: % activity: 100 = plants have died, 0 = like control plants; conditions: for herbicidal action MATIN: dosage 320 g/ha
Description: as §2

[14] = test system: Abutilon theophrasti; assay: Pre-emergence herbicidal action, ABUTH; conditions: dosage 320 g/ha
Description: as §2

[15] = test system: Pharbitis purpurea; assay: Post-emergence herbicidal action, PHBPU; conditions: for Herbicidal action against PHBPU: post-emergence, dosage 80 g/ha
Method: as §1

[16] = test system: Matricaria inodora; assay: Post-emergence herbicidal action, MATIN; set-up: key: % herbicidal action vs untreated; 100 = plants died, 0 = like control; conditions: for Herbicidal action against MATIN: post-emergence, dosage 80 g/ha
Method: as §1

[17] = test system: Avena fatua; assay: Post-emergence herbicidal action, AVEFA; set-up: key: % herbicidal action vs untreated; 100 = plants died, 0 = like control; conditions: Dosage 80 g/ha
Method: as §1

[18] = comparative experiment, 5 g of a.i./ha
[19] = comparative experiment, 20 g of a.i./ha

SMILES | Herbicidal action against AMARE ([1]; dosage 80 g/ha) | herbicidal action ABUTH [14] | herbicidal action VERPE [2] | Herbicidal action against STEME ([3]; dosage 80 g/ha) | Herbicidal action against ABUTH ([4]; dosage 80 g/ha) | herbicidal action STEME [6] | Herbicidal action against VIOTR ([7]; dosage 80 g/ha) | herbicidal action AMARE [8] | herbicidal action ECHCG [9] | Herbicidal action against SETVI ([10]; dosage 80 g/ha) | Herbicidal action against PHBPU [15] | Herbicidal action against ECHCG ([12]; dosage 80 g/ha) | herbicidal action VIOTR [5] | Herbicidal action against MATIN [16] | herbicidal action MATIN [13] | Herbicidal action against VERPE ([11]; dosage 80 g/ha) | also measured
CCSc1c(C(=O)Nc2nnnn2C)ccc(C(F)(F)F)c1SCC [Example V-3, 2,3-bis(ethylsulfanyl)-N-(1-methyl-1H-tetrazol-5-yl)-4-(trifluoromethyl)benzamide, reference compound] | – | – | – | – | – | – | – | – | – | – | – | – | – | – | – | – | Herbicidal action against AMARE [1, 18]: 0; Herbicidal action against VERPE [2, 19]: 0; Herbicidal action against STEME [3, 18]: 0; Herbicidal action against ABUTH [4, 18]: 0; Herbicidal action against VIOTR [5, 19]: 0; Herbicidal action against STEME [6, 19]: 0; Herbicidal action against VIOTR [7, 18]: 0; Herbicidal action against AMARE [8, 19]: 0; pest or weed control at 20 g/ha ([9]; Echinochloa crus-galli, 504 h, comparative experiment, 20 g of a.i./ha, read-out: Herbicidal action against ECHCG): 0%; Herbicidal action against SETVI [10, 18]: 0; Herbicidal action against VERPE [11, 18]: 0; Herbicidal action against ECHCG [12, 18]: 0; Herbicidal action against MATIN [13, 19]: 0
CSCc1c(S(C)(=O)=O)ccc(C(=O)Nc2nnnn2C)c1Cl [Example 1-278] | 100 | 90% | 90% | 90 | 90 | 80% | 100 | 100% | 90% | 100 | 90 | 100 | – | – | – | – | –
CCCn1nnnc1NC(=O)c1ccc(C)c(CSC)c1Cl [Example 3-287] | 100 | – | 90% | 100 | 90 | 90% | 90 | 100% | 100% | – | 80 | 90 | 80% | 100 | 100% | – | –
Cn1nnnc1NC(=O)c1ccc(C(F)(F)F)c(CS(=O)(=O)CC(F)(F)F)c1Cl [Example 1-313] | 90 | 100% | – | 100 | 100 | 90% | 80 | 100% | – | 80 | 90 | – | – | 90 | – | 80 | –
COc1c(C(=O)Nc2nnnn2C)ccc(C(F)(F)F)c1CS(C)(=O)=O [Example 1-136] | 90 | 100% | 100% | 100 | – | 80% | 90 | 100% | 100% | 90 | 90 | 90 | 80% | 90 | 90% | 100 | –
CCn1nnnc1NC(=O)c1ccc(S(C)(=O)=O)c(CSC)c1Cl [Example 2-278] | – | 100% | 100% | – | – | – | – | 90% | – | – | – | – | – | – | 90% | – | herbicidal action AMARE ([1]; Dosage 80 g/ha): 90; herbicidal action STEME ([3]; Dosage 80 g/ha): 80; herbicidal action ABUTH ([4]; Dosage 80 g/ha): 90; herbicidal action VIOTR ([7]; Dosage 80 g/ha): 100; herbicidal action MATIN ([16]; Dosage 80 g/ha): 90; herbicidal action PHBPU ([15]; Dosage 80 g/ha): 80; herbicidal action VERPE ([11]; Dosage 80 g/ha): 100; herbicidal action ECHCG ([12]; Dosage 80 g/ha): 100; herbicidal action AVEFA [17]: 100
